For one data set, the system named is Adult human skin. Description: Skin appearance / toxicity in skin organ culture. Conditions: for skin color change: skin treated for 48 or 72 hours, more intense in 72 hour group, only where applied. Format: cell-based. From the text:
(§1) Adult human skin from a reduction mammoplasty was cleaned and cut to a thickness of 1 mm, maintaining normal skin architecture while removing underlying adipose and some of the subdermal and connective tissue. Skin was inoculated by scarification with VZV-ORF57-Luc (cell-associated virus, from a frozen stock). VZV-ORF57-Luc expresses firefly luciferase. Infected skin was placed on NetWells, which are designed to hold skin at the air-liquid interface. This orientation keeps the epidermis in contact with the air so it remains dry, while the dermis remains moist and in contact with the medium. Infected skin was scanned by IVIS Spectrum on DPI (Day Post Inoculation) 1 and 3, and prior to treatment being initiated. All treatments were started on DPI 3, but removed after different amounts of time, including after 8, 24, 48, or 72 hours. All compounds were formulated in either the test vehicle or cocoa butter (cidofovir, CDV) and applied directly to the epidermis. To remove treatment, the compound was gently wiped off the surface of the skin, and the entire skin explant was submerged and gently swirled in phosphate-buffered saline (PBS) for a few seconds to remove any residue. The topical treatment was removed prior to imaging by gently wiping it off the epidermis.
In this study, tetracaine was placed as a small drop in the center of the skin. A color change in the skin treated for 48 or 72 hours was observed, with more intense coloring in the 72 hour group. […] Each row in FIG. 5 depicts the same piece of skin over the course of the assay.

Data set [1] concerns VZV-ORF57-Luc (Varicella Zoster Virus) in adult human skin. Description: Antiviral evaluation against VZV in skin organ culture (SOC), bioluminescence VZV yield as fold change. Format: cell-based. Here is the method:
The goal of this study was to evaluate the effect of tetracaine against VZV in a skin organ culture (SOC) model and to determine an appropriate duration of treatment in skin to prevent VZV spread. Tetracaine, either the formulation of Example 2 or the formulation of Example 7, was tested as a topical treatment (formulated in the vehicle of Example 7) against VZV infections. Control formulations (cidofovir, CDV) were formulated in cocoa butter.
as §1
FIGS. 4A-4D show VZV yield as fold change, which was calculated as the total flux (photons/sec) normalized to DPI 1 for each skin explant. Imaging started on DPI 1 and was performed every day or every other day starting on DPI 3, depending on the group. In FIGS. 4A-4D, the treatment period is highlighted by a gray box. […]

For data set [2] the following is noted: cited from earlier work.

The structures appear in SMILES notation.

Take `Nc1ccn(C[C@@H](CO)OCP(=O)(O)O)c(=O)n1` [CDV, cidofovir]: the skin color change result in the data set on Adult human skin is on record as “No color change”. Further, the “virus spread compared to cocoa butter vehicle” value in data set [1] (formulated in cocoa butter, by end of treatment phase (FIG. 4D, 72 hours), Student's t-test p<0.01) is “significantly lower virus spread”.

As for `CCCCNc1ccc(C(=O)OCCN(C)C)cc1` [Tetracaine], the “toxicity to the skin” value in the data set on Adult human skin (low bioluminescent signals in treated explants even after 3 days) is listed as “not toxic to the skin”. Besides, the skin color change entry in the data set on Adult human skin is “color change”. Further, the “solubility in alcohol, ether, benzene and chloroform” value in data set [2] (alcohol, ether, benzene, chloroform) was “soluble”. Besides, in data set [2] (water), the solubility in water result is “very slightly soluble”. For the same compound, the “effect against VZV-infected skin as a topical treatment (study conclusion)” value in data set [1] (skin organ culture) is “highly effective”. Further, the “effect on VZV yield vs test vehicle” value in data set [1] (topical treatments of 24-72 hours started DPI 3, one-way ANOVA) is recorded as “highly effective”.

Source of the values: patent publication US20240197670A1, “TREATMENT OF HERPES ZOSTER WITH TOPICAL TETRACAINE” (PAGARI LIFE SCIENCE CORP, priority 2022, published 2024).
